Laboratory results taken from patent US20090042883A1, “ANTITUMOR AGENT” (KYOWA HAKKOKOGYO CO., priority 2005, published 2009).

How the values were obtained:
Assay type in all cases: cell-based
[1] = test system: human acute myelocytic leukemia MV4; 11 cells; test: Growth inhibition test on human acute myelocytic leukemia MV4; 11 cells (WST-1, % viability); conditions: test compound 10 μmol/L, cells without test compound = 100%
Experimental: (§1) Ten thousand cells of human acute myelocytic leukemia MV4; 11 were inoculated into each well of a 96-well microplate (manufactured by Nunc Corp.), and using IMDM medium (culture medium) containing 10% FCS, preculturing was performed in a 5% carbon dioxide incubator at 37° C. for 24 hours. A DMSO solution of each test compound prepared in a concentration of 10 mmol/L was diluted with the culture medium to a final concentration of 10 μmol/L, and the diluted solution was added to each well. The individual wells were further cultured in the 5% carbon dioxide incubator at 37° C. for 72 hours. After completion of the culturing, 10 μL of WST-1 labeled mixture (manufactured by Roche Diagnostic Corp.) was added to each well, and culturing was performed in the 5% carbon dioxide incubator at 37° C. for 1 hour. Using a microplate spectrophotometer (SpectraMax 340PC384; manufactured by Nihon Molecular Devices), the absorbance of each well was measured at 450 nm and 655 nm. The value obtained by subtracting the absorbance at 450 nm from the absorbance at 655 nm (absorbance difference) was calculated for each well. The value for cells not incorporated with a test compound was designated as 100%, and the value at a well not containing cells was designated as 0%. By comparing these values with the absorbance difference obtained at the well in which each test compound was added, the cell viability (% viability) after treatment with the test compound was calculated.

[2] = test system: human renal cancer OS-RC-2 cells; test: Growth inhibition test on human renal cancer OS-RC-2 cells (WST-1, % viability); conditions: test compound 10 μmol/L, 72 hours, cells without test compound = 100%
Experimental: as §1, with “One” for “Ten”, “renal cancer OS-RC-2” for “acute myelocytic leukemia MV4; 11”, “RPMI1640” for “IMDM”, “2 hours.” for “1 hour.”, “(Model 550;” for “(SpectraMax 340PC384;”, “Bio-Rad),” for “Nihon Molecular Devices),”

[3] = test system: human prostate cancer 22Rv1 cells; test: Growth inhibition test on human prostate cancer 22Rv1 cells (WST-1, % viability); conditions: test compound 10 μmol/L, 72 hours, cells without test compound = 100%
Experimental: as §1, with “Five” for “Ten”, “prostate cancer 22Rv1” for “acute myelocytic leukemia MV4; 11”, “RPMI1640” for “IMDM”, “2 hours.” for “1 hour.”, “(Model 550;” for “(SpectraMax 340PC384;”, “Bio-Rad),” for “Nihon Molecular Devices),”

[4] = test system: human multiple myeloma NCI-H929 cells; test: Growth inhibition test on human multiple myeloma NCI-H929 cells (WST-1, % viability); conditions: test compound 10 μmol/L, cells without test compound = 100%
Experimental: as §1, with “multiple myeloma NCI-H929” for “acute myelocytic leukemia MV4; 11”, “RPMI” for “IMDM”, “2 hours.” for “1 hour.”

[5] = test system: human chronic lymphocytic leukemia-derived MEC-1 cells; test: Growth inhibition test on human chronic lymphocytic leukemia-derived MEC-1 cells (WST-1, % viability); conditions: test compound 10 μmol/L, 72 hours, cells without test compound = 100%
Experimental: Ten thousand cells of human chronic lymphocytic leukemia-derived MEC-1 were inoculated into each well of a 96-well microplate (manufactured by Nunc Corp.), and using RPMI1640 medium (culture medium) containing 10% FCS, preculturing was performed in a 5% carbon dioxide incubator at 37° C. for 1 hour. A DMSO solution of each test compound prepared in a concentration of 10 mmol/L was diluted with the culture medium to a final concentration of 10 μmol/L, and the diluted solution was added to each well. The individual wells were further cultured in the 5% carbon dioxide incubator at 37° C. for 72 hours. After completion of the culturing, 10 μL of WST-1 labeled mixture (manufactured by Roche Diagnostic Corp.) was added to each well, and culturing was performed in the 5% carbon dioxide incubator at 37° C. for 3 hours. Using a microplate spectrophotometer (M-SPmax 250; manufactured by Molecular Devices Corp.), the absorbance of each well was measured at 450 nm and 655 nm. The value obtained by subtracting the absorbance at 450 nm from the absorbance at 655 nm (absorbance difference) was calculated for each well. The value for cells not incorporated with a test compound was designated as 100%, and the value at a well not containing cells was designated as 0%. By comparing these values with the absorbance difference obtained at the well in which each test compound was added, the cell viability (% viability) after treatment with the test compound was calculated.

| Structure (SMILES) | Viability of tumor cells (% viability), Human acute myelocytic leukemia MV4; 11 cells [1] | Viability of tumor cells (% viability), Human renal cancer OS-RC-2 cells [2] | Viability of tumor cells (% viability), Human prostate cancer 22Rv1 cells [3] | Viability of tumor cells (% viability), Human multiple myeloma NCI-H929 cells [4] | Viability of tumor cells (% viability), Human chronic lymphocytic leukemia MEC-1 cells [5] |
| --- | --- | --- | --- | --- | --- |
| CCc1c(O)cc(O)c(C(=O)c2ccc(OC(F)F)cc2)c1CC(=O)N(CCO)CCOC [Compound 91] | 0% | 17% | 5% | 0% | 4% |
| CCc1c(O)cc(O)c(C(=O)c2ccc(SC)cc2)c1CC(=O)N(CCO)CCOC [Compound 95] | 0% | 18% | 5% | 0% | 4% |
| CCc1c(O)cc(O)c(C(=O)c2ccc(O)c(OC)c2)c1CC(=O)N(CCOC)CCOC [Compound 106] | 0% | 16% | 5% | 0% | 4% |
| CCc1c(O)cc(O)c(C(=O)c2ccc(S(C)(=O)=O)cc2)c1CC(=O)N(CCOC)CCOC [Compound 107] | 0% | 18% | 5% | 0% | 5% |
| CCOc1ccc(C(=O)c2c(O)cc(O)c(CC)c2CC(=O)N(CCO)CCOC)cc1 [Compound 122] | 0% | 15% | 5% | 0% | 4% |
| CCc1c(O)cc(O)c(C(=O)c2ccc(OC(C)C)cc2)c1CC(=O)N(CCO)CCOC [Compound 124] | 0% | 15% | 5% | 0% | 4% |
| CCc1c(O)cc(O)c(C(=O)c2ccc(OCCN3CCOCC3)c(OC)c2)c1CC(=O)N(CCOC)CCOC [Compound 125] | 0% | 20% | 5% | 0% | 5% |
| CCc1c(O)cc(O)c(C(=O)c2ccc(OC(C)C)cc2)c1CC(=O)N(CCOC)CCN1CCOCC1 [Compound 134] | 0% | 21% | 6% | 0% | 6% |
| CCc1c(O)cc(O)c(C(=O)c2ccc(OCCN3CCOCC3)c(OC)c2)c1CC(=O)N(CCOC)CCOC.Cl [Compound 139] | 1% | 21% | 5% | 0% | 5% |
| CCc1c(O)cc(O)c(C(=O)c2ccc(C(F)(F)F)cc2)c1CC(=O)N(CCO)CCOC [Compound 144] | 0% | 16% | 5% | 0% | 4% |
| CCc1c(O)cc(O)c(C(=O)c2ccc(OCCCN3CCOCC3)c(OC)c2)c1CC(=O)N(CCOC)CCOC [Compound 149] | 0% | 20% | 4% | 0% | 5% |
